Eleven compounds from ChEMBL document CHEMBL1201862, “PubChem BioAssay data set” (2004) can be followed below.

Each structure is given as a SMILES string.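 The compound was tested at five concentrations on cells cultured in 96-well plates, with a 48-hour exposure period. The concentration for 50% growth inhibition is given as GI50.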 Active and inactive are the calls of the source. No stated cut-off is given here; in the data, active = GI50 up to about 1.1 µM and inactive = higher. Where only a bound is given, the exact number is not on record here.

Some test systems named below: MDA-N; NCI-H23; MCF7; UO-31; SF-539; M14; NCI/ADR-RES; MDA-MB-435; PC-3; HCT-116; LOX IMVI; SF-295; T47D; NCI-H522; SNB-75; OVCAR-8; SK-MEL-28; OVCAR-4; HCC 2998; SR.
Holding throughout (test): NCI-60 cell line screen, 48 h

On to `NC(C(=O)OC(=O)c1ccccc1)C(=O)OC(=O)c1ccccc1`, for which the GI50 in the experiment on MDA-N was > 10 µM (inactive); in the experiment with NCI-H23 it was > 100 µM (inactive); with MCF7, > 100 µM (inactive); in the experiment with UO-31, > 100 µM (inactive); in the experiment on SF-539, > 100 µM (inactive); with M14, > 100 µM (inactive). Further, the GI50 with NCI/ADR-RES, in the experiment on MDA-MB-435, with PC-3, with HCT-116, in the experiment with LOX IMVI and in the experiment on SF-295 was > 100 µM (inactive) throughout. Besides, the GI50 in the experiment with T47D, in the experiment on NCI-H522, in the experiment on SNB-75, in the experiment with OVCAR-8, with SK-MEL-28 and in the experiment on OVCAR-4 was > 100 µM (inactive) in each case.
As for `c1ccc(-c2cc(-c3cccs3)c(-c3cccs3)s2)cc1`, the GI50 in the experiment with MDA-N is 14.6 µM (inactive); in the experiment with NCI-H23, 19.1 µM (inactive); in the experiment with MCF7, 16.6 µM (inactive); in the experiment with HCC 2998, 25 µM (inactive); in the experiment on UO-31, 26.2 µM (inactive); with SF-539, > 100 µM (inactive). Moreover, the GI50 is 18.9 µM (inactive) in the experiment on M14; 41.4 µM (inactive) with NCI/ADR-RES; 27.1 µM (inactive) in the experiment with MDA-MB-435; 19.6 µM (inactive) in the experiment on HCT-116; 80 µM (inactive) in the experiment with SF-295; 4.5 µM (inactive) with T47D. Also, the GI50 in the experiment on NCI-H522 is 26.5 µM (inactive); in the experiment on SNB-75 it was 20 µM (inactive); in the experiment on OVCAR-8, > 100 µM (inactive); in the experiment with SR it was 18.9 µM (inactive); in the experiment with OVCAR-4 it was 14.3 µM (inactive).
Take `OC[C@@H](O)[C@H](O)[C@@H](O)/C=N/Nc1ccc(Cl)nn1`: the GI50 with MDA-N, in the experiment on NCI-H23, in the experiment on MCF7, with HCC 2998, in the experiment on SF-539 and in the experiment on M14 was > 100 µM (inactive) throughout. The GI50 in the experiment with NCI/ADR-RES, in the experiment on MDA-MB-435, in the experiment on PC-3, in the experiment on HCT-116, with LOX IMVI and in the experiment on SF-295 was > 100 µM (inactive) throughout. The GI50 with T47D, in the experiment with NCI-H522, with OVCAR-8, in the experiment with SK-MEL-28 and in the experiment with OVCAR-4 was > 100 µM (inactive) throughout.
Regarding `Cc1cc2c(c(/C=N/c3ccccc3O)c1)OC1(C=C2)Oc2ccccc2C(=O)N1C` (stereo not given), the GI50 was 28.2 µM (inactive) in the experiment on MDA-N; 17.8 µM (inactive) in the experiment with NCI-H23; 15.8 µM (inactive) in the experiment on HCC 2998; 10.6 µM (inactive) in the experiment on UO-31; 15.5 µM (inactive) with M14; 17.3 µM (inactive) in the experiment on NCI/ADR-RES. Besides, the GI50 in the experiment with MDA-MB-435 was 22.6 µM (inactive); with PC-3, 17.4 µM (inactive); with HCT-116, 14.3 µM (inactive); in the experiment with LOX IMVI it was 12.8 µM (inactive); in the experiment on SF-295, 24.7 µM (inactive); in the experiment on T47D it was 1.57 µM (inactive). Besides, the GI50 in the experiment on SNB-75 is 18.6 µM (inactive); in the experiment on OVCAR-8, 17.7 µM (inactive); in the experiment on SK-MEL-28, 18.3 µM (inactive); in the experiment on SR, 15.8 µM (inactive); with OVCAR-4 it was 23.1 µM (inactive).
For `N#C/C(C(=S)NCc1ccccc1)=C(/N)N1CCCC1`, the GI50 with MDA-N, in the experiment with NCI-H23, in the experiment on HCC 2998, with UO-31, in the experiment on SF-539 and with M14 was > 100 µM (inactive) throughout. Moreover, the GI50 in the experiment with NCI/ADR-RES, in the experiment on MDA-MB-435, in the experiment on PC-3, in the experiment on HCT-116, with LOX IMVI and with SF-295 was > 100 µM (inactive) each time. For the same compound, the GI50 in the experiment with T47D was 25.1 µM (inactive); with NCI-H522, > 100 µM (inactive); with OVCAR-8 it was > 100 µM (inactive); in the experiment on SK-MEL-28, > 100 µM (inactive); in the experiment on SR, > 100 µM (inactive); with OVCAR-4 it was > 100 µM (inactive).
With `COc1cc2c(cc1OC)C(=O)C1(C2)[C@H](c2ccccc2)C2C(=O)c3cc(OC)c(OC)cc3C2[C@H]1c1ccccc1` (stereo not given in full), the GI50 in the experiment on MDA-N, in the experiment with NCI-H23, in the experiment with HCC 2998, in the experiment on UO-31, in the experiment on SF-539 and in the experiment with M14 was > 100 µM (inactive) throughout. Moreover, the GI50 with NCI/ADR-RES, with MDA-MB-435, in the experiment with PC-3, in the experiment with HCT-116, in the experiment with LOX IMVI and in the experiment with SF-295 was > 100 µM (inactive) in each case. Also, the GI50 in the experiment on T47D is 10.5 µM (inactive); with NCI-H522, > 100 µM (inactive); with SNB-75 it was 24.8 µM (inactive); with OVCAR-8, > 100 µM (inactive); in the experiment on SK-MEL-28, > 100 µM (inactive); with SR it was > 100 µM (inactive). Besides, the GI50 in the experiment with OVCAR-4 is > 100 µM (inactive).
For `C=C(C)C1Cc2c(cc(OC)c3c(=O)c4cccc(O)c4oc23)O1` (stereo not given), the GI50 in the experiment on MDA-N was 20 µM (inactive); in the experiment with NCI-H23 it was 26 µM (inactive); in the experiment with MCF7 it was 0.024 µM (active); in the experiment on HCC 2998 it was 34.1 µM (inactive); in the experiment on UO-31, 18 µM (inactive); in the experiment with SF-539, 18.4 µM (inactive). Moreover, the GI50 in the experiment with M14 was 24.1 µM (inactive); in the experiment with NCI/ADR-RES it was 24.8 µM (inactive); in the experiment on PC-3, 38.2 µM (inactive); in the experiment with HCT-116, 24.8 µM (inactive); in the experiment on LOX IMVI, 5.7 µM (inactive); in the experiment with SF-295 it was 17.3 µM (inactive). Besides, the GI50 was 16.6 µM (inactive) in the experiment on T47D; 16.6 µM (inactive) in the experiment on NCI-H522; 16.3 µM (inactive) in the experiment on SNB-75; 21.6 µM (inactive) in the experiment on OVCAR-8; 25.5 µM (inactive) with SK-MEL-28; 36.1 µM (inactive) in the experiment on SR. For the same compound, the GI50 with OVCAR-4 was 18.7 µM (inactive).
As to `Cn1cc(S(=O)(=O)NC(=O)Nc2ccc(Cl)cc2)c(=O)c2ccc(F)cc21`, the GI50 was 64.3 µM (inactive) with MDA-N; > 100 µM (inactive) with NCI-H23; > 100 µM (inactive) in the experiment on HCC 2998; > 100 µM (inactive) in the experiment with UO-31; > 100 µM (inactive) with SF-539; > 100 µM (inactive) with NCI/ADR-RES. The GI50 in the experiment with MDA-MB-435 is > 100 µM (inactive); in the experiment with PC-3, > 100 µM (inactive); with HCT-116, > 100 µM (inactive); in the experiment with LOX IMVI it was 22.6 µM (inactive); with SF-295 it was > 100 µM (inactive); in the experiment with T47D it was > 100 µM (inactive). Besides, the GI50 is 32 µM (inactive) with NCI-H522; > 100 µM (inactive) with SNB-75; > 100 µM (inactive) in the experiment on OVCAR-8; > 100 µM (inactive) in the experiment with SK-MEL-28; > 100 µM (inactive) in the experiment with SR; > 100 µM (inactive) in the experiment with OVCAR-4.
As to `O=C(O)CC(Sc1ccccc1)c1ccccc1` (stereo not given), the GI50 in the experiment on MDA-N, with NCI-H23, in the experiment on MCF7, in the experiment on UO-31, in the experiment with M14 and in the experiment on NCI/ADR-RES was > 100 µM (inactive) each time. Besides, the GI50 with MDA-MB-435, with PC-3, in the experiment with HCT-116, in the experiment with LOX IMVI, with SF-295 and with T47D was > 100 µM (inactive) in each case. Also, the GI50 with NCI-H522, in the experiment on SNB-75, with OVCAR-8, with SK-MEL-28 and in the experiment on OVCAR-4 was > 100 µM (inactive) each time.
For `CCOC(=O)c1ccc(-n2nnc(C(N)=O)c2O)cc1`, the GI50 in the experiment with MDA-N, in the experiment with NCI-H23, in the experiment on MCF7, in the experiment with HCC 2998, in the experiment on UO-31 and with M14 was > 100 µM (inactive) in each case. The GI50 in the experiment with NCI/ADR-RES, with MDA-MB-435, in the experiment with PC-3, with HCT-116, with SF-295 and in the experiment on T47D was > 100 µM (inactive) throughout. For the same compound, the GI50 in the experiment on NCI-H522, in the experiment on SNB-75, with OVCAR-8, with SK-MEL-28 and in the experiment with OVCAR-4 was > 100 µM (inactive) in each case.
`O=C(O)c1ccccc1C(=O)Nc1cc2c(cc1Br)-c1ccccc1C2=O`: the GI50 was > 100 µM (inactive) in the experiment with MDA-N; > 100 µM (inactive) in the experiment on NCI-H23; > 100 µM (inactive) with MCF7; 23.2 µM (inactive) in the experiment with HCC 2998; > 100 µM (inactive) in the experiment on UO-31; > 100 µM (inactive) with SF-539. The GI50 is > 100 µM (inactive) in the experiment with M14; > 100 µM (inactive) in the experiment on NCI/ADR-RES; > 100 µM (inactive) in the experiment with MDA-MB-435; > 100 µM (inactive) in the experiment with PC-3; > 100 µM (inactive) with HCT-116; 81.1 µM (inactive) in the experiment with LOX IMVI. In addition, the GI50 with T47D is > 100 µM (inactive); in the experiment with NCI-H522, 59.7 µM (inactive); with SNB-75, 47.5 µM (inactive); in the experiment on OVCAR-8 it was > 100 µM (inactive); in the experiment on SK-MEL-28, 6.61 µM (inactive); with OVCAR-4 it was > 100 µM (inactive).
